Test in all cases: microbe, parasite or virus in culture
The test system of assay [1] is MRSA-OS. It counts as cell-based, Staphylococcus aureus. To be noted: 24 h. An excerpt:
(§1) A range of Gram-positive and Gram-negative laboratory- and clinical-strain bacteria were used for the experiments. These included laboratory-strain methicillin-sensitive S. aureus (MSSA; including SH1000 and ATCC SA29213), laboratory-strain MRSA (ATCC MRSA43300), clinical-strain MRSA (MRSA-OS; an IK isolate), laboratory-strain methicillin-sensitive Staphylococcus epidermidis (MSSE; ATCC SE12228), laboratory invasive-strain P. aeruginosa (PAO1-L), and clinical cytotoxic-strain P. aeruginosa (PA-OS; an IK isolate).
(§2) In vitro antimicrobial efficacy of the antibiotics and designed HDPs was determined using an established MIC assay with broth microdilution method approved by the Clinical and Laboratory Standards Institute (CLSI)[64]. Briefly, the microorganisms were cultured on Tryptone Soya Agar (TSA) and incubated overnight for 18–21 h at 37 °C. Bacterial inoculums were subsequently prepared using the direct colony suspension method. Three to five bacterial colonies were obtained from the agar plate and inoculated into an Eppendorf tube containing 1 ml of cation-adjusted Muller-Hinton broth (caMHB), consisting of 20–25 mg/L calcium ions (Ca^2+) and 10–12.5 mg/L magnesium ions (Mg^2+). The bacterial suspension was adjusted to achieve a turbidity equivalent to 0.1 OD600 or 0.5 MacFarland, containing ~ 1.5 × 10^8 colony-forming unit (CFU)/ml, which was then further diluted in 1:150 in caMHB to reach a final bacterial concentration of ~ 1 × 10^6 colony forming units (CFU)/ml. Each treatment (peptide or antibiotic) was prepared in 1:2 serial dilution in 96-well polypropylene microplates (with a final treatment volume of 50 μl per well), followed by the addition of 50 μl of 1 × 10^6 CFU/ml bacteria into each well (with a final bacterial concentration of 5 × 10^5 CFU/ml).

Assay [2] deals with S. aureus SH1000. It counts as cell-based, Staphylococcus aureus.
From the text: as §1, §2

For assay [3], the system named is P. aeruginosa PAO1-L. It counts as cell-based.
From the text: as §1, §2

Where [4] appears, read: 0 mM NaCl, caMHB, read-out: MIC.
Setting [5] is: 0 mM NaCl, caMHB, 24 h, read-out: MIC.

Where two headings read alike, the source gives them in different places. Peptide text beside a SMILES is read from it. A value given as a limit tells only on which side of the number the result lay.

Consider `NCCCC[C@H](NC(=O)[C@H](CS)NC(=O)[C@H](CS)NC(=O)[C@@H](N)CCCCN)C(=O)N[C@@H](CCCCN)C(=O)N1CCC[C@H]1C(=O)O` [BD2-6, KCCKKP] (H-KCCKKP-OH; N-terminus and C-terminus assumed), for which the MIC is more than 283.3 µM in assay [1] (setting [4]); more than 200 µg/mL in assay [1] (-OS); more than 283.3 µM in assay [2] (setting [5]); more than 200 µg/mL in assay [2] (SH1000, 24 h); more than 283.3 µM in assay [3] (setting [5]); more than 200 µg/mL in assay [3] (PAO1, 24 h).

For `N=C(N)NCCC[C@H](NC(=O)CNC(=O)[C@@H](N)CCCNC(=N)N)C(=O)N[C@@H](CCCCN)C(=O)N[C@@H](CS)C(=O)N[C@@H](CS)C(=O)N[C@@H](CCCNC(=N)N)C(=O)N[C@@H](CCCNC(=N)N)C(=O)N[C@@H](CCCCN)C(=O)N[C@@H](CCCCN)C(=O)O` [BD3-10, RGRKCCRRKK] (H-RGRKCCRRKK-OH; N-terminus and C-terminus assumed), the MIC in assay [1] (setting [4]) was more than 154.9 µM; in assay [1] (-OS) it was more than 200 µg/mL; in assay [2] (setting [5]) it was more than 154.9 µM; in assay [2] (SH1000, 24 h) it was more than 200 µg/mL; in assay [3] (setting [5]), more than 154.9 µM; in assay [3] (PAO1, 24 h) it was more than 200 µg/mL.

Take `CC[C@H](C)[C@H](NC(=O)[C@H](CCCNC(=N)N)NC(=O)[C@H](CCC(N)=O)NC(=O)[C@@H](NC(=O)[C@@H](NC(=O)[C@H](CCCNC(=N)N)NC(=O)[C@@H](N)CCCCN)[C@@H](C)CC)C(C)C)C(=O)N[C@@H](CCCCN)C(=O)N[C@@H](CC(=O)O)C(=O)N[C@@H](Cc1ccccc1)C(=O)N[C@@H](CC(C)C)C(=O)N[C@@H](CCCNC(=N)N)C(=O)O` [Ca12, KRIVQRIKDF LR] (H-KRIVQRIKDFLR-OH; N-terminus and C-terminus assumed): the MIC in assay [1] (-OS) was more than 200 µg/mL; in assay [2] (SH1000, 24 h), more than 200 µg/mL; in assay [3] (PAO1, 24 h), 200 µg/mL.

For the compound `CC[C@H](C)[C@H](NC(=O)[C@H](CCCNC(=N)N)NC(=O)[C@H](CCC(N)=O)NC(=O)[C@@H](NC(=O)[C@@H](NC(=O)[C@H](CCCNC(=N)N)NC(=O)[C@@H](N)CCCCN)[C@@H](C)CC)C(C)C)C(=O)N[C@@H](CCCCN)C(=O)N[C@@H](CC(=O)O)C(=O)N[C@@H](Cc1ccccc1)C(=O)N[C@@H](CC(C)C)C(=O)N[C@@H](CCCNC(=N)N)C(=O)N[C@@H](CCCNC(=N)N)C(=O)NCC(=O)N[C@@H](CCCCN)C(=O)N[C@@H](C)C(=O)N[C@@H](CCCCN)C(=O)O` [CaD1, KRIVQRIKDF LRRGKAK] (H-KRIVQRIKDFLRRGKAK-OH; N-terminus and C-terminus assumed), the MIC in assay [1] (-OS) was more than 200 µg/mL; in assay [2] (SH1000, 24 h), more than 200 µg/mL; in assay [3] (PAO1, 24 h), more than 200 µg/mL.

On to `CC[C@H](C)[C@H](NC(=O)[C@@H](N)CCCNC(=N)N)C(=O)N[C@@H](CCCCN)C(=O)N[C@@H](CC(=O)O)C(=O)N[C@@H](Cc1ccccc1)C(=O)N[C@@H](CC(C)C)C(=O)N[C@@H](CCCNC(=N)N)C(=O)N[C@@H](CC(N)=O)C(=O)NCC(=O)N[C@@H](CCCNC(=N)N)C(=O)N[C@@H](CCCCN)C(=O)N[C@@H](CS)C(=O)N[C@@H](CS)C(=O)N[C@@H](CCCNC(=N)N)C(=O)N[C@@H](CCCNC(=N)N)C(=O)N[C@@H](CCCCN)C(=O)N[C@@H](CCCCN)C(=O)O` [CaD3, RIKDFLRNGR KCCRRKK] (H-RIKDFLRNGRKCCRRKK-OH; N-terminus and C-terminus assumed), for which the MIC in assay [1] (setting [4]) is more than 91.8 µM; in assay [1] (-OS), more than 200 µg/mL; in assay [2] (setting [5]), more than 91.8 µM; in assay [2] (SH1000, 24 h) it was more than 200 µg/mL; in assay [3] (setting [5]) it was more than 91.8 µM; in assay [3] (PAO1, 24 h), more than 200 µg/mL.

As to `C[C@H](NC(=O)[C@H](CCCCN)NC(=O)CNC(=O)[C@@H](N)CCCNC(=N)N)C(=O)N[C@@H](CCCCN)C(=O)N[C@@H](CS)C(=O)N[C@@H](CS)C(=O)N[C@@H](CCCCN)C(=O)NCC(=O)N[C@H](C(=O)N[C@@H](CCCCN)C(=O)N[C@@H](CS)C(=O)N[C@@H](CS)C(=O)N[C@@H](CCCCN)C(=O)N[C@@H](CCCCN)C(=O)N1CCC[C@H]1C(=O)O)[C@@H](C)O` [DD12, RGKAKCCKGT KCCKKP] (H-RGKAKCCKGTKCCKKP-OH; N-terminus and C-terminus assumed), the MIC in assay [1] (setting [4]) is more than 115 µM; in assay [1] (-OS), more than 200 µg/mL; in assay [2] (setting [5]), more than 115 µM; in assay [2] (SH1000, 24 h), more than 200 µg/mL; in assay [3] (setting [5]) it was more than 115 µM; in assay [3] (PAO1, 24 h) it was more than 200 µg/mL.

Turning to `C[C@H](NC(=O)[C@H](CCCCN)NC(=O)CNC(=O)[C@@H](N)CCCNC(=N)N)C(=O)N[C@@H](CCCCN)C(=O)N[C@@H](CS)C(=O)N[C@@H](CS)C(=O)N[C@@H](CCCCN)C(=O)N[C@@H](CCCNC(=N)N)C(=O)NCC(=O)N[C@@H](CCCNC(=N)N)C(=O)N[C@@H](CCCCN)C(=O)N[C@@H](CS)C(=O)N[C@@H](CS)C(=O)N[C@@H](CCCNC(=N)N)C(=O)N[C@@H](CCCNC(=N)N)C(=O)N[C@@H](CCCCN)C(=O)N[C@@H](CCCCN)C(=O)O` [DD13, RGKAKCCKRG RKCCRRKK] (H-RGKAKCCKRGRKCCRRKK-OH; N-terminus and C-terminus assumed), the MIC was more than 92.3 µM in assay [1] (setting [4]); more than 200 µg/mL in assay [1] (-OS); more than 92.3 µM in assay [2] (setting [5]); more than 200 µg/mL in assay [2] (SH1000, 24 h); more than 92.3 µM in assay [3] (setting [5]); more than 200 µg/mL in assay [3] (PAO1, 24 h).

Regarding `N=C(N)NCCC[C@H](NC(=O)CNC(=O)[C@@H](N)CCCNC(=N)N)C(=O)N[C@@H](CCCCN)C(=O)N[C@@H](CS)C(=O)N[C@@H](CS)C(=O)N[C@@H](CCCNC(=N)N)C(=O)N[C@@H](CCCNC(=N)N)C(=O)N[C@@H](CCCCN)C(=O)N[C@@H](CCCCN)C(=O)N[C@@H](CCCCN)C(=O)N[C@@H](CS)C(=O)N[C@@H](CS)C(=O)N[C@@H](CCCCN)C(=O)N[C@@H](CCCCN)C(=O)N1CCC[C@H]1C(=O)O` [DD32, RGRKCCRRKK KCCKKP] (H-RGRKCCRRKKKCCKKP-OH; N-terminus and C-terminus assumed), the MIC in assay [1] (setting [4]) was more than 101 µM; in assay [2] (setting [5]) it was more than 101 µM; in assay [2] (SH1000, 24 h), more than 200 µg/mL; in assay [3] (setting [5]) it was more than 101 µM; in assay [3] (PAO1, 24 h) it was more than 200 µg/mL.

The values above are taken from publication PMC8443647, “Hybrid derivative of cathelicidin and human beta defensin-2 against Gram-positive bacteria: A novel approach for the treatment of bacterial keratitis” (Scientific Reports, 2021).
